The molecules below were run against T1, human IsK protein (Homo sapiens, UniProt P15382) (assay: Inhibition of IsK current in Xenopus oocytes expressing human IsK protein (two-microelectrode voltage-clamp)). Details: human IsK expressed in Xenopus oocytes; activated to -10 mV, 15 s voltage jumps, room temperature; Hill equation.
T1 construct: only IsK injected, pore from oocyte's endogenous KCNQ1; two-microelectrode voltage clamp
Type: cell-based

T1 sequence (P70057 whole entry partner): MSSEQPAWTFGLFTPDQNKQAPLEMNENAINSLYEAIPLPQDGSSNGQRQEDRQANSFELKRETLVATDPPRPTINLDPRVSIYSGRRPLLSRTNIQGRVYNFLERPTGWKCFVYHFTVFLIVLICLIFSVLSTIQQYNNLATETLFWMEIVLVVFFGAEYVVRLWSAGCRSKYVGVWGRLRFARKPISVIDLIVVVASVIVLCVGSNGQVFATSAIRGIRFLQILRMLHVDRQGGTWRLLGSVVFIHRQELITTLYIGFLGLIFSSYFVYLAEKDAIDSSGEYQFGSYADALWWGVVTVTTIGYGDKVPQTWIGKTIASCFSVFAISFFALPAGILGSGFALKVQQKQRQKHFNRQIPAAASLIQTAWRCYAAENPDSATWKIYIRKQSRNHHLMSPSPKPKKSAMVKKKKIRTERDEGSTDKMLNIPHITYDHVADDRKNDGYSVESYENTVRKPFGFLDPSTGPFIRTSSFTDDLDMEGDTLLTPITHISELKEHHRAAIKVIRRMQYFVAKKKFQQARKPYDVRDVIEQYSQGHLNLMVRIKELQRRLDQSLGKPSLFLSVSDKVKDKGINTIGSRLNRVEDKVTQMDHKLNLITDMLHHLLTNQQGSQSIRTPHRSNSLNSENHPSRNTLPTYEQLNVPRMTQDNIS

Row | IC50 [nM] | Compound
1 | 380 | CCS(=O)(=O)N(C)C1CC(C)(C)Oc2ccc(-c3cccs3)cc21 (stereo not drawn) [Example 26, Ethanesulfonic acid (2,2-dimethyl-6-thiophen-2-yl-chroman-4-yl)methylamide]
2 | 430 | CCOCCCOc1ccc2c(c1)C(N(CC)S(C)(=O)=O)CC(C)(C)O2 (stereo not drawn) [Example 1, N-[6-(3-Ethoxypropoxy)-2,2-dimethylchroman-4-yl]-N-ethyl-methanesulfonamide]
3 | 690 | CCOCCOc1ccc2c(c1)C(N(CC)S(C)(=O)=O)CC(C)(C)O2 (stereo not drawn) [Example 9, N-[6-(2-Ethoxyethoxy)-2,2-dimethylchroman-4-yl]-N-ethylmethanesulfonamide]
4 | 1710 | CCN(C1CC(C)(C)Oc2ccc(OCCCCCO)cc21)S(C)(=O)=O (stereo not drawn) [Example 2, N-Ethyl-N-[6-(5-hydroxypentyloxy)-2,2-dimethylchroman-4-yl]methanesulfonamide]
5 | 6360 | CCN(C1CC(C)(C)Oc2ccc(OCCCCC(=O)NCCOC)cc21)S(C)(=O)=O (stereo not drawn) [Example 3, 5-[4-(Ethylmethanesulfonylamino)-2,2-dimethylchroman-6-yloxy]pentanoic acid (2-methoxyethyl)amide]
6 | 7430 | CCN(C1CC(C)(C)Oc2ccc(OCCO)cc21)S(C)(=O)=O (stereo not drawn) [Example 8, N-Ethyl-N-[6-(2-hydroxyethoxy)-2,2-dimethylchroman-4-yi]-methanesulfonamide]
7 | 1740 | CCOCCCOc1ccc2c(c1)C(N(CCOC)S(C)(=O)=O)CC(C)(C)O2 (stereo not drawn) [Example 21, N-[6-(3-Ethoxypropoxy)-2,2-dimethylchroman-4-yl]-N-(2-methoxyethyl)methanesulfonamide]
8 | ~3000 | CCCN(C1CC(C)(C)Oc2ccc(OCC(=O)NCCOC)cc21)S(=O)(=O)CC (stereo not drawn) [Example 22, 2-[4-(Ethanesulfonyl-(1-propyl)amino)-2,2-dimethylchroman-6-yloxy]-N-(2-methoxyethyl)acetamide]
9 | 320 | CCOCCCOc1ccc2c(c1)C(N(C)S(C)(=O)=O)CC(C)(C)O2 (stereo not drawn) [Example 15, N-[6-(3-Ethoxypropoxy)-2,2-dimethylchroman-4-yl]-N-methylmethanesulfonamide]
10 | ~1000 | CCOCCOc1ccc2c(c1)C(N(CCOC)S(C)(=O)=O)CC(C)(C)O2 (stereo not drawn) [Example 17, N-[6-(2-Ethoxyethoxy)-2,2-dimethylchroman-4-yl]-N-(2-methoxyethyl)methanesulfonamide]
11 | 2490 | CCCN(C1CC(C)(C)Oc2ccc(OCC(=O)NCCCOCC)cc21)S(=O)(=O)CC (stereo not drawn) [Example 23, 2-[4-(Ethanesulfonyl-(1-propyl)amino)-2,2-dimethylchroman-6-yloxy]-N-(3-ethoxypropyl)acetamide]
12 | ~8000 | CCN(C1CC(C)(C)Oc2ccc(OCc3cc(OC)ccn3)cc21)S(C)(=O)=O (stereo not drawn) [Example 10, N-Ethyl--N-[6-(((4-methoxypyridin-2-yl)methyl)oxy)-2,2-dimethylchroman-4-yl]methanesulfonamide]

Source: patent US6177449A, “Sulfonamide-substituted chromans, processes for their preparation, their use as a medicament or diagnostic, and pharmaceutical preparations comprising them” (Aventis Pharma Deutschland GmbH, priority 1997, dated 2001)
